17 molecules from US9206125B2, “Use of compound binding to mSin3B that specifically binds to neuron restrictive silencer factor (NRSF)” (PUBLIC UNIVERSITY CORPORATION YOKOHAMA CITY UNIVERSITY, priority 2010, dated 2015) can be followed below.

For orientation: melting point means the temperature, or range, at which the solid turns liquid.

Series [1] has as its system DAOY (human medulloblastoma cell strain). As to the kind of experiment: MTT assay, growth inhibition against human medulloblastoma cells (Example 3). Type of series: cell-based. More on the design: dose or concentration left out as unconfirmed. To be noted: final concentration 200. As to the method: Compounds: No. 5, No. 15, No. 23, NCR 6, NCR 7, NCR 11, NCR 13, NCR 14, NCR 15
Cell: DAOY (human medulloblastoma cell strain)
(§1) Medium: DMEM (High Glucose, Nacalai Tesque)
Reagent for cell counting: MTT cell counting kit (Nacalai Tesque) *Hereinafter, referred to as MTT assay.
DAOY was plated on three 96-well plates at 5×10^3 cells/well. These three plates were for use on day 0, day 1 and day 3, respectively. As a medium, 10% FBS-containing DMEM was used.
The medium in the plate for day 0 was exchanged with 5% FBS-containing DMEM, and cells were cultured therein for 30 minutes. Then, MTT assay was carried out to measure the activity at the basal cell count.
With respect to the plates for day 1 and day 3, the medium was exchanged with 5% FBS-containing medium, and the compound was added simultaneously at this time (as a control, DMSO (the solvent) alone was added).
MTT assay was carried out using the plate for day 1.
MTT assay was carried out using the plate for day 3.
Relative growths on day 1 and day 3 were calculated, with the average of MTT activities (Ab 570 nm) […] in the rows of wells for the respective compounds being taken as 100. Each experiment was performed in quadruple.
Statistical test was performed by compound-treated cells and DMSO-treated cells.
For orientation: Tetrazolium dyes change colour on reduction, which living cells bring about.

For series [2], the system named is neuropathic pain model by partial sciatic nerve ligation. The series can be described thus: Electrical stimulation-induced paw withdrawal (EPW) test, hypoesthesia after nerve injury. The series is classed as in vivo, C57BL male mice. To be noted: 0.5 nmol i.t. once per day from 3 days after nerve injury; observed 4 and 5 days after injury.
The test system is the same in series [3]. As to the kind of experiment: Thermal paw withdrawal test, morphine resistance after nerve injury. Type of series: in vivo, C57BL male mice. To be noted: compound 0.5 nmol i.t. from 3 days after injury; morphine 30 nmol i.pl. 5 days after injury.
Series [4] has as its system DAOY (human medulloblastoma cell strain). The series can be described thus: MTT assay using a human medulloblastoma cell strain (Example 2, relative growth). The series is classed as cell-based. To be noted: DAOY cells.
Description: Cell growth effects were examined on 3,5-dimethylpiperidyl 3-methyl-4-nitrophenyl ketone (compound 155) and 1-[4-(difluoromethoxy)phenyl]-2-(3,5-dimethylpiperidyl)ethan-1-one (compound A28) (MTT assay using a human medulloblastoma cell strain).
Compounds: 3,5-dimethylpiperidyl 3-methyl-4-nitrophenyl ketone (compound 155) (purchased from SPECS); 1-[4-(difluoromethoxy)phenyl]-2-(3,5-dimethylpiperidyl)ethan-1-one (compound A28) (purchased from Enamine)
Cell: DAOY (human medulloblastoma cell strain) (provided by Kanno, Department of Neurosurgery, School of Medicine, Yokohama City University)
as §1
Reagent for cell counting: MTT cell counting kit (Nacalai Tesque) MTT Assay: (operations)
Day −1: DAOY was plated on three 96-well plates at 5×10^3 cells/well. These three plates were for use on day 0, day 1 and day 3, respectively. As a medium, 10% FBS-containing DMEM was used.
Day 0: MTT assay was carried out using the plate for day 0 to measure the activity at the basal cell count. With respect to the plates for day 1 and day 3, the compound was added to give a concentration of 100 μg/ml (as controls, DMEM alone and DMEM containing DMSO (solvent) were used). Specifically, the compound-containing DMEM was prepared in advance, and the compound was added to the plate through medium exchange. At this time, FBS concentration was lowered to 5% in order to prevent the masking of the compound's effect due to excessive growth signals. Day 1: MTT assay was carried out using the plate for day 1. Day 3: MTT assay was carried out using the plate for day 3. Data Analysis: Relative growths on day 1 and day 3 were calculated, with the average of MTT activities (Ab 570 nm) on day 0 in the rows of wells for addition of the respective compounds being taken, as 100.
Each experiment was performed in quadruple and each run was repeated three times. Relative values based on the values of day 0 were used to calculate data for n=12 wells and statistical tests were performed.
Test was by t-test between the cell count with DMEM alone and the cell count with the compound or DMSO.
MIT Assay: A technique for cell counting using the respiratory activity of mitochondria as an indicator. When the respiratory activity is high (the value at Ab 570 nm is high), it can be interpreted that the cell count is large.

Series [5] deals with Nav 1.8. The series can be described thus: Quantitative real time PCR of Nav 1.8 mRNA in dorsal root ganglia after nerve injury. The series is classed as in vivo, C57BL male mice. To be noted: 0.5 nmol i.t., single administration 3 days after nerve injury. In general terms: In qPCR the cycle at which signal appears reflects the starting amount.
For series [6], the system named is MOP. The series can be described thus: Quantitative real time PCR of MOP mRNA in dorsal root ganglia after nerve injury. The series is classed as in vivo, C57BL male mice. To be noted: 0.5 nmol i.t., single administration 3 days after nerve injury; 3, 6 and 12 hours after administration; n=3; tendency.
Where [7] appears, read: Day 0, basal cell count before compound addition.
[8] abbreviates: Day 1, compound 100 μg/ml, 5% FBS DMEM.

Take `Cc1cc(CN2CC(C)CC(C)C2)ccc1[N+](=O)[O-]` (stereo not drawn) [NCR 7, 3,5-Dimethyl-1-(3-Methyl-4-Nitrobenzyl)piperidine]: the “cytotoxicity (MTT assay)” value in series [1] is “cytotoxicity was observed”.
`CC1CC(C)CN(C(=O)c2ccc([N+](=O)[O-])cc2)C1` (stereo not drawn) [NCR-2, 3,5-Dimethyl-1-(4-Nitrobenzoyl)piperidine]: the melting point was in the range of 120 to 125 °C.
With `Cc1cc(C(=O)N2CCCC(C)C2)ccc1[N+](=O)[O-]` (stereo not drawn) [NCR-3, 3-Methyl-1-(3-Methyl-4-Nitrobenzoyl)piperidine], the melting point fell in the range of 82 to 82.8 °C.
Still for that read-out and setting: the same measure for `CC1CCCN(C(=O)c2ccc([N+](=O)[O-])cc2)C1` (stereo not drawn) [NCR-4, 3-Methyl-1-(4-Nitrobenzoyl)piperidine]: 70.2 to 71.3 °C; for `CC1CC(C)CN(C(=O)c2ccccc2)C1` (stereo not drawn) [NCR-6, 1-(Benzoyl)-3,5-Dimethyl piperidine]: 107.2 to 108.7 °C.
On the same count and under the same terms, to `Cc1cc(C(=O)N2CCCCC2)ccc1[N+](=O)[O-]` [NCR-8, 1-(3-Methyl-4-Nitrobenzoyl)piperidine] belongs 71.7 to 72.2 °C.
`CCN(CC)C(=O)c1ccc([N+](=O)[O-])c(C)c1` [NCR-9, N,N-Diethyl-3 Methyl-4-Nitrobenzamide] had a melting point of 74.5 to 76 °C.
On the same count and under the same terms, to `CC1CC(C)CN(C(=O)c2ccc(Cl)cc2)C1` (stereo not drawn) [NCR-11, 3,5-Dimethyl-1-(4-Chlorobenzoyl)piperidine] belongs 113.5 to 115.4 °C.
As to `Cc1cc(S(=O)(=O)N2CC(C)CC(C)C2)ccc1[N+](=O)[O-]` (stereo not drawn) [NCR-12, 3,5-Dimethyl-1-[(3-Methyl-4-Nitrophenyl)sulfonyl]piperidine], the melting point was 132.7 to 138.5 °C.
On the same count and under the same terms, the same measure for `Cc1cc(C(=O)N(C(C)C)C(C)C)ccc1[N+](=O)[O-]` [NCR-15, N,N-Diisopropyl-3-Methyl-4-Nitrobenzamide]: 107.6 to 109.7 °C; for `Cc1cc(C(=O)N2C(C)CCCC2C)ccc1[N+](=O)[O-]` (stereo not drawn) [NCR-17, 2,6-Dimethyl-1-(3-Methyl-4-Nitrobenzoyl)piperidine]: 99.7 to 100.5 °C.
`Cc1cc(C(=O)N(Cc2ccccc2)Cc2ccccc2)ccc1[N+](=O)[O-]` [NCR-18, N,N-Dibenzyl-3-Methyl-4-Nitrobenzamide] showed a melting point of 105.8 to 108.7 °C.
The same measure, in the same setting: to `Cc1cc(C(=O)N2CCCC2)ccc1[N+](=O)[O-]` [NCR-19, 1-(3-Methyl-4-Nitrobenzoyl)pyrrolidine] belongs 61.3 to 61.9 °C; to `Cc1cc(C(=O)NC2CCCCC2)ccc1[N+](=O)[O-]` [NCR-22, N-Cyclohexyl-3-Methyl-4-Nitrobenzamide], 134.2 to 141 °C.
On to `CC(C)CCNC(=O)CCC(=O)NCc1ccc(F)cc1` [compound 106, N-[(4-fluorophenyl)methyl]-N′-(3-methylbutyl)butane-1,4-diamide], for which, in series [2], the “effect on hypoesthesia (pain threshold in response to C-fiber stimulation), EPW test” value is recorded as “no effect on pain threshold”. Moreover, the “peripheral morphine analgesia after nerve injury, thermal paw withdrawal test” value in series [3] is given as “morphine analgesia was hardly recognized”.
Take `Cc1cc(C(=O)N2CC(C)CC(C)C2)ccc1[N+](=O)[O-]` (stereo not drawn) [compound 155, 3,5-dimethylpiperidyl 3-methyl-4-nitrophenyl ketone]: the “Relative Growth (MTT activity, Ab 570 nm, day 0 average taken as 100)” value in series [4] (setting [7]) was 100.00 ± 5.08; in series [4] (setting [8]), 123.16 ± 10.03; in series [4] (Day 3, compound 100 μg/ml, 5% FBS DMEM), 105.07 ± 17.53.
`CC1CC(C)CN(CC(=O)c2ccc(OC(F)F)cc2)C1` (stereo not drawn) [compound A28, 1-[4-(difluoromethoxy)phenyl]-2-(3,5-dimethylpiperidyl)ethan-1-one]: the results for the “Relative Growth (MTT activity, Ab 570 nm, day 0 average taken as 100)” value in series [4] (setting [7]) and in series [4] (setting [8]) were 100.00 ± 6.56 and 233.28 ± 1.69, respectively. Also, in series [5], the “time needed for the effect on Nav 1.8 and MOP expression to appear” value was 3 to 6 h. Also, the “recovery of the lowering of expression of Nav 1.8 after nerve injury” value in series [5] (3, 6 and 12 hours after administration, n=3, tendency) is given as 10-15%. Further, the “recovery of the lowering of expression of MOP after nerve injury” value in series [6] is recorded as 10-15%.
